The source of these data is ChEMBL document CHEMBL5518172, “Discovery of hydroxamate as a promising scaffold dually inhibiting metallo- and serine-β-lactamases” (Eur J Med Chem, 2024).

Activity calls are given as the source filed them. The rule behind the calls is not given here.

Data set [1] has as its system Bacteria. Nature of the data set: Inhibition of recombinant serine beta lactamase KPC-2 (unknown origin) expressed in Escherichia coli BL21 (DE3) cells using meropenem as substrate at 20 uM by spectrometric analysis relative to control.
Data set [2] has as its system Escherichia coli. Nature of the data set: Synergistic antibacterial activity against Escherichia coli BL21 (DE3) harboring NDM-1 assessed as decrease in bacterial colony at 128 microg/ml incubated for 12 hrs in presence of meropenem by imaging analysis. It is filed as functional, organism-based. To be noted: dose 128.0 µg/ml.
Data set [3] relates to Escherichia coli. Briefly: Synergistic antibacterial activity against Escherichia coli BL21 (DE3) harboring serine beta lactamase OXA-48 assessed as meropenem MIC at 64 microg/ml measured after 16 hrs by CLSI protocol based broth microdilution method (reference value: 1 microg/ml). In kind it is functional. To be noted: dose 64 µg/ml.
Data set [4] has as its system Bacteria. Nature of the data set: Inhibition of recombinant serine beta lactamase OXA-48 (unknown origin) expressed in Escherichia coli BL21 (DE3) cells using cefazolin as substrate assessed as residual activity at 20 uM relative to control.
Data set [5] deals with Escherichia coli. Briefly: Synergistic antibacterial activity against Escherichia coli clinical isolate 08 assessed as fold decrease in meropenem MIC at 64 microg/ml measured after 16 hrs by CLSI protocol based broth microdilution method. In kind it is functional. To be noted: dose 64 µg/ml.
Data set [6] deals with Escherichia coli. Briefly: Synergistic antibacterial activity against Escherichia coli clinical isolate 04 assessed as meropenem MIC at 64 microg/ml measured after 16 hrs by CLSI protocol based broth microdilution method (reference value: 256 microg/ml). In kind it is functional. To be noted: dose 64 µg/ml.
Data set [7] concerns Bacteria. Briefly: Inhibition of recombinant metallo-beta-lactamase L-1 (unknown origin) expressed in Escherichia coli BL21 (DE3) cells using cefazolin as substrate at 20 uM by spectrometric analysis relative to control.
In data set [8] the test system is Bacteria. Briefly: Inhibition of recombinant metallo-beta-lactamase IMP-1 (unknown origin) expressed in Escherichia coli BL21 (DE3) cells using cefazolin as substrate at 20 uM by spectrometric analysis relative to control.
Data set [9] relates to Escherichia coli. Nature of the data set: Synergistic antibacterial activity against Escherichia coli BL21 (DE3) harboring serine beta lactamase KPC-2 assessed as decrease in bacterial colony at 128 microg/ml incubated for 12 hrs in presence of meropenem by imaging analysis. It is filed as functional, organism-based. To be noted: dose 128.0 µg/ml.
In data set [10] the test system is Escherichia coli. Briefly: Synergistic antibacterial activity against Escherichia coli harboring NDM-1 infected in Kunming mouse model assessed as reduction in bacterial load in spleen at 20 mg/kg, ip co-administered with 10 mg/kg of meropenem. It is filed as functional, organism-based.
In data set [11] the test system is Bacteria. Briefly: Irreversible inhibition of recombinant serine beta lactamase KPC-2 (unknown origin) expressed in Escherichia coli BL21 (DE3) cells using cefazolin as substrate assessed as reduction in residual activity at 5 uM preincubated for 6 hrs followed by dialysis and measured after 24 hrs.
The test system of data set [12] is Escherichia coli. Briefly: Synergistic antibacterial activity against Escherichia coli clinical isolate 24 assessed as meropenem MIC at 64 microg/ml measured after 16 hrs by CLSI protocol based broth microdilution method (reference value: 256 microg/ml). To be noted: dose 64 µg/ml. It is filed as functional.
The nature of data set [13]: Cytotoxicity against mouse L929 cells assessed as cell viability upto 200 uM incubated for 48 hrs by CCK8 assay relative to control. In kind it is toxicity, cell-based. To be noted: read-out: Activity.
Data set [14] has as its system Bacteria. Briefly: Inhibition of recombinant serine beta lactamase KPC-2 (unknown origin) expressed in Escherichia coli BL21 (DE3) cells assessed as reduction in residual activity at 0.25 to 5 uM. To be noted: dose 0.25-5 µM, time 360.0 min, TDE = time-dependent effect.
Data set [15] deals with Metallo-beta-lactamase type 2 (Bacteria) (UniProt C7C422). Nature of the data set: Inhibition of recombinant NDM-1 (unknown origin) expressed in Escherichia coli BL21 (DE3) cells using meropenem as substrate assessed as reduction in residual activity. To be noted: dose 0.075-20 µM.
Data set [16] concerns Bacteria. Nature of the data set: Inhibition of recombinant serine beta lactamase OXA-48 (unknown origin) expressed in Escherichia coli BL21 (DE3) cells using meropenem as substrate at 20 uM by spectrometric analysis relative to control.
Data set [17] in a line: Inhibition of recombinant metallo-beta-lactamase IMP-1 (unknown origin) expressed in Escherichia coli BL21 (DE3) cells using meropenem as substrate by spectrometric analysis. The arrangement: species or system Bacteria.

Metallo-beta-lactamase type 2 (Bacteria), sequence (C7C422 whole entry): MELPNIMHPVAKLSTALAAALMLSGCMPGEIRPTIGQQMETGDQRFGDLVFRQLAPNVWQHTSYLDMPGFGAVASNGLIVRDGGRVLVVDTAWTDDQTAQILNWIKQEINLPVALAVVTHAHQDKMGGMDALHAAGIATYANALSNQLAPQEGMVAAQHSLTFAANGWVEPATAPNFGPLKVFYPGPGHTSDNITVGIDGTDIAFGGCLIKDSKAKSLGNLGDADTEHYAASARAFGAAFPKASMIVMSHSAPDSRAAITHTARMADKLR

As for `O=C(CCCc1ccccc1)NOC(=O)OCc1ccccc1`, the inhibition in the data set with Bacteria [1] was greater than 90%; in the data set with Bacteria [7], less than 42%; in the data set on Bacteria [8], greater than 90%; in the data set on Bacteria [14], “Tde”; in data set [15], “Dose-Dependent Effect”; with Bacteria [16], greater than 90%. The outcome with Escherichia coli [2], with Escherichia coli [9] and in the data set on Escherichia coli [10] was Active. For the same compound, the MIC came to 0.5 µg/mL in the data set with Escherichia coli [3], 128 µg/mL in the data set with Escherichia coli [6] and 128 µg/mL in the data set on Escherichia coli [12]. For the same compound, the Activity in the data set with Bacteria [4] was less than 10%. Moreover, in the data set with Escherichia coli [5], the “fold change (FC)” value is recorded as 2. Further, the inhibition result with Bacteria [11] is “Active”. In addition, the viability at 48 h, up to 200 µM in [13] was greater than 80%. The IC50 in data set [17] turned out to be 1320 nM.
